Legend:
[1] = molecular target: T1, Prostaglandin G/H synthase 2 (Homo sapiens, UniProt P35354); test: Inhibition of human purified Prostaglandin G/H synthase 2
T1 sequence (P35354 whole entry): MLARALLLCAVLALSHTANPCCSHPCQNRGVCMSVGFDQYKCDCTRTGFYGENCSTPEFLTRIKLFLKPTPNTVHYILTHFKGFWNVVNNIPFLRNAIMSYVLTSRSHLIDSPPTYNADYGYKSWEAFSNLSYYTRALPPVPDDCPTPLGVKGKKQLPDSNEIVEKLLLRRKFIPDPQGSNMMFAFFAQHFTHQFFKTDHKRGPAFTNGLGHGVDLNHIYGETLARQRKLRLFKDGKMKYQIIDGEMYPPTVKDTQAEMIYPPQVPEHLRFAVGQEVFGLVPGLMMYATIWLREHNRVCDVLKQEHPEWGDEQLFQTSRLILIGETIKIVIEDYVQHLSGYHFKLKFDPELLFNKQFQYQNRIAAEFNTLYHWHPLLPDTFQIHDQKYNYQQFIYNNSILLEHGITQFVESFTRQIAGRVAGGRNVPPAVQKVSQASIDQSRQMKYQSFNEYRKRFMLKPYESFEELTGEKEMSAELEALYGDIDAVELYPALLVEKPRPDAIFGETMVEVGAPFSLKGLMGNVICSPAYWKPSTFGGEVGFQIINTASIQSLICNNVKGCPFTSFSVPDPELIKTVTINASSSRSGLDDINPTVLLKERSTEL

[2] = molecular target: Prostaglandin G/H synthase 1 (Homo sapiens, UniProt P23219); test: Inhibition of human purified Prostaglandin G/H synthase 1
[3] = test system: Rattus norvegicus; test: The compound was tested in vivo for activity against carrageenan induced paw edema in rat after peroral administration; format: functional; details: po
[4] = test system: Rattus norvegicus; test: The compound was tested in vivo for gastric ulcerogenic activity in rat after peroral administration; format: functional, Stomach
[5] = species on record: Rattus norvegicus; test: animal or person; details: po
Description: The compound was tested in vivo for activity against adjuvant-induced arthritis in rat after peroral administration after peroral administration

[6] = test system: Rattus norvegicus; test: The compound was tested in vivo for activity against adjuvant-induced arthritis in rat after peroral administration; format: functional; details: po
[7] = test system: Rattus norvegicus; test: The compound was tested in vivo for activity against yeast -induced hyperalgesia in rat after peroral administration; format: functional; details: po
[8] = test system: Rattus norvegicus; test: The compound was tested in vivo for activity against yeast -induced hyperthermia in rat after peroral administration; format: functional; details: po
[9] = test system: Rattus norvegicus; test: The effective dose in vivo for activity against carrageenan induced paw edema in rat after administering perorally; format: functional
[10] = test system: Rattus norvegicus; test: Under dose in vivo for activity against carrageenan induced paw edema in rat after administering perorally; format: functional

Chain of Prostaglandin G/H synthase 1 (P23219 whole entry): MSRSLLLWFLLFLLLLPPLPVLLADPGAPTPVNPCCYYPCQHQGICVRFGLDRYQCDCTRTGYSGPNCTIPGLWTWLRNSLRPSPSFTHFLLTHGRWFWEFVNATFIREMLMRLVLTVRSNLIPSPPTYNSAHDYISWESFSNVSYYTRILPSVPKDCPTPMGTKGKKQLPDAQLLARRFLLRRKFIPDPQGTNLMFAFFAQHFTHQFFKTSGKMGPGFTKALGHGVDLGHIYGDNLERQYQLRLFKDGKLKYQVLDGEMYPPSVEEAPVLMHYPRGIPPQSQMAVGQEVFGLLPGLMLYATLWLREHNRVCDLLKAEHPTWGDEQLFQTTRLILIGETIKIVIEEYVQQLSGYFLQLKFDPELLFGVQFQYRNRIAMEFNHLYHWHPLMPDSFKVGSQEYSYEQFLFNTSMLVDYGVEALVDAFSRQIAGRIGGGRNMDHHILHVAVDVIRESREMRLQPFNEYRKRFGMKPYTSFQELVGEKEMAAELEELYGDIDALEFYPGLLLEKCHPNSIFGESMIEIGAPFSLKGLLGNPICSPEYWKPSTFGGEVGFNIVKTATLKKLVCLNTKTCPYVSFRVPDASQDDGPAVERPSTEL

## Cc1nc(-c2ccc(C)s2)c(-c2ccc(S(N)(=O)=O)c(F)c2)o1
[1]
  IC50: 0.026 µM
[2]
  IC50: 25 µM

## Cc1nc(-c2ccc(F)cc2)c(-c2ccc(S(N)(=O)=O)c(F)c2)o1
[1]
  IC50: 0.04 µM
[2]
  IC50: 40 µM

## Cc1nc(C2CCCCC2)c(-c2ccc(S(N)(=O)=O)c(O)c2)o1
[1]
  IC50: 19.7 µM
[2]
  IC50: > 100 µM

## Cc1nc(C2CCCCC2)c(-c2ccc(S(N)(=O)=O)c(C)c2)o1
[2]
  IC50: > 100 µM

## COc1cc(-c2oc(C)nc2C2CCCCC2)ccc1S(N)(=O)=O
[1]
  IC50: > 100 µM
[2]
  IC50: > 100 µM

## Cc1nc(C2CCCCC2)c(-c2ccc(S(N)(=O)=O)c(Cl)c2)o1
[2]
  IC50: > 100 µM

## CC(C)c1nc(C2CCCCC2)c(-c2ccc(S(N)(=O)=O)c(F)c2)o1
[1]
  IC50: 0.6 µM
[2]
  IC50: 29.7 µM

## CCc1nc(C2CCCCC2)c(-c2ccc(S(N)(=O)=O)c(F)c2)o1
[1]
  IC50: 0.12 µM
[2]
  IC50: 47 µM

## Cc1nc(-c2ccc(C)s2)c(-c2ccc(S(N)(=O)=O)cc2)o1
[1]
  IC50: 0.012 µM
[2]
  IC50: 1.8 µM

## Cc1nc(C2CCCCC2)c(-c2ccc(S(N)(=O)=O)c(N)c2)o1
[1]
  IC50: 0.93 µM
[2]
  IC50: > 100 µM

## Cc1ccc(-c2cc(C(F)(F)F)nn2-c2ccc(S(N)(=O)=O)cc2)cc1 [CELECOXIB]
[3]
  ED50: 2.8 mg/kg
[4]
  UD50: >200 mg/kg
[5]
  ED50: 0.37 mg/kg

## COc1ccc2c(c1)c(CC(=O)O)c(C)n2C(=O)c1ccc(Cl)cc1 [INDOMETHACIN]
[6]
  ED50: 0.13 mg/kg
[3]
  ED50: 1.6 mg/kg
[7]
  ED50: 3.1 mg/kg
[8]
  ED50: 1.4 mg/kg
[4]
  UD50: 3.4 mg/kg

## Cc1nc(C2CCCCC2)c(-c2ccc(S(N)(=O)=O)c(F)c2)o1 [TILMACOXIB]
[1]
  IC50: 0.085 µM
[2]
  IC50: > 100 µM
[9]
  ED50: 4.4 mg kg-1 [middle of 4 runs]
[10]
  UD50: >300 mg/kg

Source: ChEMBL document CHEMBL1135906 (J Med Chem, 2002)
